The values below come from patent US10894807B2 (Siemens Medical Solutions USA, Inc., priority 2011, dated 2021).

This assay has as its target human PSMA (Homo sapiens (Human), UniProt Q04609). As to the kind of experiment: Enzymatic assay for in vitro evaluation of PSMA inhibitors (fluorescent assay of PSMA activity, NAAG substrate, OPA detection of glutamate). It is filed as biochemical.

Where a SMILES comes first, the peptide text is derived from it. [ ]: non-standard residue; d: D form. The star is where a group is joined. Boc = CC(C)(C)OC(=O)*; Nlys = NCCCCNCC(=O)O A value given as a limit tells only on which side of the number the result lay.

human PSMA, sequence (Q04609 whole entry): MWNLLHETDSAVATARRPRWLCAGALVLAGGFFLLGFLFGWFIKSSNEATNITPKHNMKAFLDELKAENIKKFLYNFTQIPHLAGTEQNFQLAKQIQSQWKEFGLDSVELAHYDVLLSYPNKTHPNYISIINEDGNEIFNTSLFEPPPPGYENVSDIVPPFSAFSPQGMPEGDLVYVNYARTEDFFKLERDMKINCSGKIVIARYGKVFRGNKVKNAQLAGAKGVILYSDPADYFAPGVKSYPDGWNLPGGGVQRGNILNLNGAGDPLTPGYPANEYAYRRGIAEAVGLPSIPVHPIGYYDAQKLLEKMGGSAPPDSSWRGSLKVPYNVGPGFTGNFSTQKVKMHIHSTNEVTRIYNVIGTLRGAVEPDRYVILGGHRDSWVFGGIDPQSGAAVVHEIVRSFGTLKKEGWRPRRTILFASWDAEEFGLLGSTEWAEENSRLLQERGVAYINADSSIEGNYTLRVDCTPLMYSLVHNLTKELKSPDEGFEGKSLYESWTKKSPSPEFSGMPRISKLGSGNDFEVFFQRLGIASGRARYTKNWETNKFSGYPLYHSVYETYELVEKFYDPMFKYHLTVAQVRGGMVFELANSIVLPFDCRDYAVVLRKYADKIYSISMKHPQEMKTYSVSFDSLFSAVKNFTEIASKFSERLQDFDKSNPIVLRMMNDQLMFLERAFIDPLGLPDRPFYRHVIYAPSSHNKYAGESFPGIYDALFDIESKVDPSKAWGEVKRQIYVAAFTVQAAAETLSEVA

`CN(C(=O)N[C@@H](CCC(=O)O)C(=O)O)[C@@H](Cc1ccc(NC(=O)CCCN=[N+]=[N-])cc1)C(=O)O` [P063, (S)-2-(3-((S)-2-(4-(4-Azidobutaneamido)phenyl)-1-carboxyethyl)-3-methylureido)-pentanedioic Acid]: the “PSMA Blkg % (10 μM)” value (compound at 10 μM) is reported as 30%.
Regarding `O=C(O)CC[C@@H](C(=O)O)N(O)C(=O)N[C@@H](CCCCNC(=O)OCc1ccccc1)C(=O)O` [P140, (9S,13S)-12-Hydroxy-3,11-dioxo-1-phenyl-2-oxa-4,10,12-triazapentadecane-9,13,15-tricarboxylic Acid], the “PSMA Blkg % (10 μM)” value (compound at 10 μM) was 64%.
For `O=C(O)CC[C@H](NC(=O)C[C@@H](NC(=O)CCNC(=O)c1ccc(-n2cc(CCCF)nn2)cc1)C(=O)O)C(=O)O` [P245, (S)-2-((R)-3-Carboxy-3-(3-(4-(4-(3-fluoropropyl)-1H-1,2,3-triazol-1-yl)benzamido)propanamido)-propanamido)pentanedioic Acid], affinity was put at a Ki of 156 nM and the “PSMA Blkg % (1.0 μM)” value was determined as 62%.
The matching figures for `O=C(O)CC[C@H](NC(=O)N[C@@H](Cc1ccc(NC(=O)N2CCN(C(=O)c3ccc(-n4cc(CCCF)nn4)cc3)CC2)cc1)C(=O)O)C(=O)O` [P248, (S)-2-(3-((S)-1-Carboxy-2-(4-(4-(4-(4-(3-fluoropropyl)-1H-1,2,3-triazol-1-yl)benzoyl)piperazine-1-carboxamido)phenyl)ethyl)ureido)pentanedioic Acid]: 3.4 nM and 100%.
The like results for `O=C(O)CC[C@H](NC(=O)N[C@@H](CCCCNC(=O)c1cc(C(=O)N2CCN(C(=O)Nc3ccc(C[C@H](NC(=O)N[C@@H](CCC(=O)O)C(=O)O)C(=O)O)cc3)CC2)cc(-n2cc(CCCF)nn2)c1)C(=O)O)C(=O)O` [P286, (S)-2-(3-((S)-1-Carboxy-2-(4-(4-(3-(((S)-5-carboxy-5-(3-((S)-1,3-dicarboxypropyl)ureido)pentyl)carbamoyl)-5-(4-(3-fluoropropyl)-1H-1,2,3-triazol-1-yl)benzoyl)piperazine-1-carboxamido)phenyl)ethyl)ureido)pentanedioic Acid] were, in that order, 12.5 nM and 92%.
Take `N#C/N=C(/N[C@@H](CCCCNC(=O)c1ccc(-n2cc(CCCF)nn2)cc1)C(=O)O)N[C@@H](CCC(=O)O)C(=O)O` [P153, (S)-2-(3-((S)-1-Carboxy-5-(4-(4-(3-fluoropropyl)-1H-1,2,3-triazol-1-yl)benzamido)pentyl)-2-cyanoguanidino)pentanedioic Acid]: the “PSMA Blkg % (10 μM)” value (compound at 10 μM) stood at 63%.
The same measure, in the same setting: next, `CN(C(=O)[C@H](CC(=O)O)NC(=O)COCCNC(=O)c1ccc(F)cc1)[C@@H](CCC(=O)O)C(=O)O` [P174, (S)-2-((S)-3-Carboxy-2-(2-(2-(4-fluorobenzamido)ethoxy)acetamido)-N-methylpropanamido)pentanedioic Acid]: 1%; `O=C(O)CC[C@H](NC(=O)N(O)C(CCCCNC(=O)c1ccc(NC(=O)c2ccc(F)cc2)cc1)C(=O)O)C(=O)O` (some centres unmarked) [P171]: 87%; `O=C(O)CCC(C(=O)O)n1cc(COc2ccc3ccc(=O)oc3c2)nn1` (centres unmarked) [P109, 2-(4-(((2-oxo-2H-chromen-7-yl)oxy)methyl)-1H-1,2,3-triazol-1-yl)pentanedioic Acid]: 24%.
Same read-out and setting: next, `O=C(O)CC[C@@H](C(=O)O)N1C(=O)CC(=O)N([C@@H](CCCCNC(=O)CCCCn2cc(CCCF)nn2)C(=O)O)C1=O` [P076, (S)-2-(3-((S)-1-Carboxy-5-(5-(4-(3-fluoropropyl)-1H-1,2,3-triazol-1-yl)pentanamido)pentyl)-2,4,6-trioxotetrahydropyrimidin-1(2H)-yl)pentanedioic Acid]: 14%; `O=C(O)CC[C@H](NC(=O)N[C@@H](CCCCNC(=O)c1ccc(Cl)nc1)C(=O)O)C(=O)O` [P003, (S)-2-(3-((S)-1-Carboxy-5-(6-chloronicotinamido)pentyl)ureido)pentanedioic Acid]: 99%.
Still for that read-out and setting: in the case of `CC(C)(C)OC(=O)NCCCCN(CC(=O)N[C@@H](CCC(=O)O)C(=O)O)C(=O)NC(N)=O` [P048, (S)-2-(2-(1-(4-(tert-Butoxycarbonylamino)butyl)-3-carbamoylureido)acetamido) pentanedioic Acid] it was 0%; in that of `O=C(O)CC[C@H](NC(=O)C[C@H](NC(=O)CCCCNC(=O)c1ccccc1)C(=O)O)C(=O)O` [P119, (S)-2-((S)-3-(5-Benzamidopentanamido)-3-carboxypropanamido)pentanedioic Acid], 26%; in that of `O=C(O)CC[C@H](NC(=O)CN(O)C(=O)CCCNC(=O)Cn1cc(CCCF)nn1)C(=O)O` [P142, (S)-2-(2-(4-(2-(4-(3-Fluoropropyl)-1H-1,2,3-triazol-1-yl)acetamido)-N-hydroxybutanamido)acetamido)pentanedioic Acid], 5%.
For `O=C(O)CC[C@H](NC(=O)C[C@@H](NC(=O)CCCNC(=O)OCc1ccccc1)C(=O)O)C(=O)O` [P208, (10R,14S)-3,8,12-Trioxo-1-phenyl-2-oxa-4,9,13-triazahexadecane-10,14,16-tricarboxylic Acid], the “PSMA Blkg % (10 μM)” value (10 μM) came out at 75%.
Regarding `CC(C)(C)OC(=O)NCCCCNCC(=O)N[C@@H](CCC(=O)O)C(=O)O` [P051, (S)-2-(2-(4-(tert-Butoxycarbonylamino)butylamino)acetamido)pentanedioic Acid] (H-[Nlys](Boc)-Glu-OH), the “PSMA Blkg % (10 μM)” value (compound at 10 μM) was 4%.
For the compound `O=C(O)CC[C@H](NC(=O)CN(O)C(=O)CCc1ccc(-n2cc(CCCF)nn2)cc1)C(=O)O` [P144, (S)-2-(2-(3-(4-(4-(3-Fluoropropyl)-1H-1,2,3-triazol-1-yl)phenyl)-N-hydroxypropanamido)acetamido)pentanedioic Acid], the “PSMA Blkg % (10 μM)” value (compound at 10 μM) is 7%.
Consider `O=C(O)CC[C@H](NC(=O)N[C@@H](CCCCNc1nc(-c2ccc3c(c2)OCO3)cs1)C(=O)O)C(=O)O` [P235, (S)-2-(3-((S)-5-(4-(Benzo[d][1,3]dioxol-5-yl)thiazol-2-ylamino)-1-carboxypentyl)ureido)-pentanedioic Acid], for which the Ki was less than 0.3 nM and the “PSMA Blkg % (1.0 μM)” value is 100%.
As for `C[C@H](NC(=O)N[C@@H](CCC(=O)O)C(=O)O)C(=O)O` [P025, (S)-2-(3-((S)-1-Carboxyethyl)ureido)pentanedioic Acid], the “PSMA Blkg % (10 μM)” value (compound at 10 μM) worked out at 92%.
For `CCC1(CC)C(=O)N([C@@H](CCCCN(Cc2ccc([N+](=O)[O-])cc2)C(=O)CCCCn2cc(CCCF)nn2)C(=O)O)C(=O)N([C@@H](CCC(=O)O)C(=O)O)C1=O` [P105, (S)-2-(3-((S)-1-Carboxy-5-(5-(4-(3-fluoropropyl)-1H-1,2,3-triazol-1-yl)-N-(4-nitrobenzyl)pentanamido)pentyl)-5,5-diethyl-2,4,6-trioxotetrahydropyrimidin-1(2H)-yl)pentanedioic Acid], under “compound at 10 μM”, the “PSMA Blkg % (10 μM)” value amounted to 5%.
For `NCCOCCOCCOCCOCc1cn(-c2cc(C(=O)NCCCC[C@H](NC(=O)N[C@@H](CCC(=O)O)C(=O)O)C(=O)O)cc(C(=O)NCCCC[C@H](NC(=O)N[C@@H](CCC(=O)O)C(=O)O)C(=O)O)c2)nn1` [P288, (2S,2′S)-2,2′-(((((1S,1′S)-((5-(4-(13-Amino-2,5,8,11-tetraoxatridecyl)-1H-1,2,3-triazol-1-yl)isophthaloyl)bis(azanediyl))bis(1-carboxypentane-5,1-diyl))bis(azanediyl))bis(carbonyl))-bis(azanediyl))dipentanedioic Acid], the Ki amounted to 9.7 nM and the “PSMA Blkg % (1.0 μM)” value is given as 85%.
On to `O=C(O)CC[C@H](NC(=O)C[C@@H](NC(=O)CCCCCNC(=O)c1cc(C(=O)NCCCCCC(=O)N[C@H](CC(=O)N[C@@H](CCC(=O)O)C(=O)O)C(=O)O)cc([N+](=O)[O-])c1)C(=O)O)C(=O)O` [P296, (2S,2′S)-2,2′-(((3R,3′R)-3,3′-((6,6′-((5-nitroisophthaloyl)bis(azanediyl))bis(hexanoyl))-bis(azanediyl))bis(3-carboxypropanoyl))bis(azanediyl))dipentanedioic Acid], for which the “PSMA Blkg % (1.0 μM)” value came to 72%.
Regarding `CCC1(CC)C(=O)N([C@@H](CCCCNC/C=C/c2ccc(-n3cc(CCCF)nn3)cc2)C(=O)O)C(=O)N([C@@H](CCC(=O)O)C(=O)O)C1=O` [P114, (S)-2-(3-((S)-1-Carboxy-5-((E)-3-(4-(4-(3-fluoropropyl)-1H-1,2,3-triazol-1-yl)phenyl)allylamino)pentyl)-5,5-diethyl-2,4,6-trioxotetrahydropyrimidin-1(2H)-yl)pentanedioic Acid], for the setting “compound at 10 μM”, the “PSMA Blkg % (10 μM)” value was found to be 8%.
Turning to `O=C(O)CC[C@H](NC(=O)NC(CCCCNc1nc(NCCN(CCNC(=O)Cn2cc(CCCF)nn2)CCNc2ccc([N+](=O)[O-])c(NCCCCC(NC(=O)N[C@@H](CCC(=O)O)C(=O)O)C(=O)O)n2)ccc1[N+](=O)[O-])C(=O)O)C(=O)O` (stereo partly drawn) [P273, (2S,2′S)-2,2′-(((((1S,1′S)-((6,6′-((((2-(2-(4-(3-Fluoropropyl)-1H-1,2,3-triazol-1-yl)acetamido)ethyl)azanediyl)bis(ethane-2,1-diyl))bis(azanediyl))bis(3-nitropyridine-6,2-diyl))bis(azanediyl))bis(1-carboxypentane-5,1-diyl))bis(azanediyl))bis(carbonyl))bis(azanediyl))dipentanedioic Acid], the Ki is 0.2 nM and the “PSMA Blkg % (1.0 μM)” value is 97%.
For `O=C(O)CC[C@H](NC(=S)N(O)[C@@H](CCCCNC(=O)c1ccc(-n2cc(CCCF)nn2)cc1)C(=O)O)C(=O)O` [P146, (S)-2-(3-((S)-1-Carboxy-5-(4-(4-(3-fluoropropyl)-1H-1,2,3-triazol-1-yl)benzamido)pentyl)-3-hydroxythioureido)pentanedioic Acid], the “PSMA Blkg % (10 μM)” value (compound at 10 μM) turned out to be 45%.
With `O=C(O)CC[C@H](NC(=O)N[C@@H](CCCCNC(=O)CCC(CCC(=O)NCCCC[C@H](NC(=O)N[C@@H](CCC(=O)O)C(=O)O)C(=O)O)NC(=O)c1ccc(-n2cc(CCCF)nn2)cc1)C(=O)O)C(=O)O` [P282, (3S,7S,25S,29S)-16-(4-(4-(3-Fluoropropyl)-1H-1,2,3-triazol-1-yl)benzamido)-5,13,19,27-tetraoxo-4,6,12,20,26,28-hexaazahentriacontane-1,3,7,25,29,31-hexacarboxylic Acid], the affinity, expressed as Ki, was 1.1 nM. In other words, the single-digit nanomolar range.
